# According to patent publication US20160220557A1, “USE OF ACETYL-COA CARBOXYLASE INHIBITORS FOR TREATING ACNE VULGARIS” (PFIZER INC., priority 2013, published 2016):
# Legend:
# hACC2 = hACC2 (Homo sapiens, UniProt O00763); test: Radiometric ACC2 inhibition assay; assay type: biochemical
# [1] = target: T1, recombinant human ACC1 (rhACC1) (Homo sapiens, UniProt Q13085, DEL44-44); test: Transcreener ADP detection FP assay, recombinant human ACC1 inhibition; assay type: biochemical; conditions: recombinant human ACC1, 50 μM ATP; read-out: Transcreener Assay hACC1 IC50
# T1 construct: His6 (N); made in house; host or cells: SF9 insect cells (baculovirus)
# [2] = target: T2, recombinant human ACC2 (rhACC2) (Homo sapiens, UniProt O00763, V2141I); test: Transcreener ADP detection FP assay, recombinant human ACC2 inhibition; assay type: biochemical; conditions: recombinant human ACC2, 50 μM ATP; read-out: Transcreener Assay hACC2 IC50
# T2 construct: made in house; host or cells: CHO cells, tetracycline-induced (pcDNA5 FRT TO-TOPO)
# T2 sequence (O00763 whole entry V2141I): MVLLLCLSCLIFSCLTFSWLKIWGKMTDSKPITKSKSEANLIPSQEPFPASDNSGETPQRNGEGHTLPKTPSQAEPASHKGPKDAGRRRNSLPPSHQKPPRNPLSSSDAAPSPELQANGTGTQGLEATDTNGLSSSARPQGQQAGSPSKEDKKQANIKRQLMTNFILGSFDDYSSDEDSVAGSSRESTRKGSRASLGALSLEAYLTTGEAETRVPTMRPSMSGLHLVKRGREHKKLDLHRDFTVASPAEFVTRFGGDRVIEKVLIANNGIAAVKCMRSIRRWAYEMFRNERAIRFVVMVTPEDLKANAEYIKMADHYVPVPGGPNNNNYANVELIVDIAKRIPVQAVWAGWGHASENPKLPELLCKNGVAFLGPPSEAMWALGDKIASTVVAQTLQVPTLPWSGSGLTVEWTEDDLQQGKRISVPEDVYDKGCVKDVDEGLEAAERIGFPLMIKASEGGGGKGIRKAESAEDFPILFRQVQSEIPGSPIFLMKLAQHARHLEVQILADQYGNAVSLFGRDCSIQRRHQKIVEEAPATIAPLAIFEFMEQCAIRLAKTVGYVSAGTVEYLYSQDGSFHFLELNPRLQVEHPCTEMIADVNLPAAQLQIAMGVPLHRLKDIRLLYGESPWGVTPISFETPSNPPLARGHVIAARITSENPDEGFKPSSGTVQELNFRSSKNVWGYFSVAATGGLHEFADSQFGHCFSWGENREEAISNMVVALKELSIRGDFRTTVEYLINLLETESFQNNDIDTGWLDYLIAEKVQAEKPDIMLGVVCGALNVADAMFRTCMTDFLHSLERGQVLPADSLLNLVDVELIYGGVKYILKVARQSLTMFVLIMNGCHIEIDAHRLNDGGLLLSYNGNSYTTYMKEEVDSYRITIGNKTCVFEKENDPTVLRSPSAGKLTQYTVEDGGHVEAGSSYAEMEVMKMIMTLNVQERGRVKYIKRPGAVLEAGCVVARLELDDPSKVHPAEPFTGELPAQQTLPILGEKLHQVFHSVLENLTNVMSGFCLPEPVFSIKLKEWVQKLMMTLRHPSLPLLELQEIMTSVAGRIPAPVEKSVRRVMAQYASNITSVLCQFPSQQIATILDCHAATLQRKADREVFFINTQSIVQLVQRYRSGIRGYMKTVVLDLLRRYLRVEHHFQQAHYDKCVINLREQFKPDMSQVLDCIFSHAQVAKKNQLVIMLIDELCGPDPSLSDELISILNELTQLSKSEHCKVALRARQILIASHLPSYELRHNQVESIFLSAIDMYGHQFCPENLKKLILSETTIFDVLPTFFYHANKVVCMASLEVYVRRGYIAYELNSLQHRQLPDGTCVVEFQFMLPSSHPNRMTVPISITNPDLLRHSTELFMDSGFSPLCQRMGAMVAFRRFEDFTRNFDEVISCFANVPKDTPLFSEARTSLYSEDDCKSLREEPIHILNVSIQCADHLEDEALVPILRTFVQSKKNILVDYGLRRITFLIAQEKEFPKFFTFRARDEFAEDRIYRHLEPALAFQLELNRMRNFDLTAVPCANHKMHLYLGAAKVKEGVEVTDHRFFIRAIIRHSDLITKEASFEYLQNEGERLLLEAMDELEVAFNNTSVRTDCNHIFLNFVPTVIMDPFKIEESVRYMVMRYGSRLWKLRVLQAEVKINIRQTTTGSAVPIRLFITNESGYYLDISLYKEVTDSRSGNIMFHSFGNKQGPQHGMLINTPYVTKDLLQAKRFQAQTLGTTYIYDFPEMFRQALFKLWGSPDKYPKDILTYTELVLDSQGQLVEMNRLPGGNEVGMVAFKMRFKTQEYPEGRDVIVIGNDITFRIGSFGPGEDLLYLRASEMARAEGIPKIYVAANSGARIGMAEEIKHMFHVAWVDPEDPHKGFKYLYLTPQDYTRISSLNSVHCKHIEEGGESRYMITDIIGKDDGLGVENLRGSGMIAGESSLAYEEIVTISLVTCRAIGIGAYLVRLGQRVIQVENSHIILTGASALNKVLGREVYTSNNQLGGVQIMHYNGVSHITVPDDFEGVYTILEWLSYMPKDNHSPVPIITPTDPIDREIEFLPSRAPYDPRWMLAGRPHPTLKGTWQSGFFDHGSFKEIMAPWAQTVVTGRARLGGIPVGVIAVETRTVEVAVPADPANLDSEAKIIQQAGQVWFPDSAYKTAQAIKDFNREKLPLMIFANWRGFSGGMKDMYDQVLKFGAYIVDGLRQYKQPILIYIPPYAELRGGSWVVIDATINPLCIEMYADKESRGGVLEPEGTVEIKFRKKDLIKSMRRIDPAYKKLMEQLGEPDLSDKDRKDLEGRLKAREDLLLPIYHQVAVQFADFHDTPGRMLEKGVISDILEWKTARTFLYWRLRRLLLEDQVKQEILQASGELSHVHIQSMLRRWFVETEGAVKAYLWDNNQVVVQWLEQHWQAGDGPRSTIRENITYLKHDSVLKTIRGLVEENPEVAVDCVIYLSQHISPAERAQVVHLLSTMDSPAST
# hACC1 = hACC1 (Homo sapiens, UniProt Q13085); test: Radiometric ACC1 inhibition assay; assay type: biochemical
# [3] = system: SZ95 human sebocyte cells; test: Inhibition of de novo lipogenesis (14C-acetate incorporation) in cultured human sebocytes; assay type: cell-based; conditions: Homo sapiens, SZ95 sebocytes, 14C-acetate incorporation into lipids relative to vehicle; read-out: C9302E Sebocyte IC50
# Protocol: SZ95 sebocytes were grown in Human Sebocyte Growth Medium (HSGM) (Sebomed® medium (Biochrom: F8205) supplemented with 10% heat-inactivated fetal bovine serum, 1% penicillin/streptomycin, 1 mM calcium chloride and 5 ng/mL recombinant human epidermal growth factor (Life Tech: PHG0311)). At 90% confluence, cells were washed three times with PBS and then detached with 0.05% Trypsin-EDTA. Cells were centrifuged and resuspended in HSGM containing 10% charcoal-stripped serum (Life Tech: 12676-029). Cells were then plated in 24-well plates at a density of 0.25×10^6 cells/well and were incubated overnight to enable cell adherence to the culture plate.
# Cells were treated with a dose response of compound, and each dose was assayed in triplicate. Briefly, compounds were dissolved in DMSO stocks and diluted 1:1000 into charcoal-stripped media. 0.1% DMSO without compound was used as the vehicle control. After a 1 hour preincubation with compound or vehicle, 0.25 μCi ^14C-acetic acid (American Radiolabeled Chemicals: ARC0158B) was added to each well. Plates were then incubated for an additional two hours. At the end of the incubation period, cells were removed from incubator, placed on ice, and then washed twice with ice-cold PBS to remove free ^14C-acetic acid. Plates were sealed and stored at −20° C. until analysis.
# Plates were shaken for 1 hour at room temperature to induce lysis. Lysates were transferred to individual 1.5 mL polypropylene tubes, and wells were washed with 175 μl of PBS, which was added to lysates. 450 μl of a 1:1 (v/v) chloroform:methanol solution was then added to each tube, and then all tubes were vortexed for 10 seconds and centrifuged at 20,000×g for 5 minutes at room temperature to separate aqueous from organic phase. A 25 μl aliquot was removed from the bottom organic layer of each sample and added to 6 mL OptiPhase supermix (PerkinElmer: 1200-439) scintillation fluid. Counts of ^14C incorporated into lipids were assessed by scintillation counting. DNL (counts of ^14C incorporated into lipids) was expressed for compound treated cells relative to DNL in the vehicle control treated cells for determination of EC50 values. For a subset of the compounds tested, a second aliquot (3×35 μl) of the organic layer of each sample was removed and applied to a TLC lane (Analtech Silica Gel G Plates). Radiolabeled lipids were resolved using a 2-solvent system. Solvent 1 contained a 100:100:100:40:36 mixture of ethyl acetate:isopropyl alcohol:CHCl3:MeOH:0.25% KCl and solvent 2 a 70:27:3 hexane:diethyl ether:acetic acid mix. The TLC plate was dried under nitrogen for 30 minutes and [^14C]-calibrators added to a vacant lane. Bands were visualized and quantitated using a Molecular Dynamics' Storm 860 Phosphorimager system following 18-36 hours exposure to a Phosphorimager screen.
# [4] = system: ear skin triglyceride levels; test: Hamster ear triglyceride content after chronic treatment; assay type: in vivo, Syrian hamster; conditions: oral 30 mg/kg once daily for 19 days
# Protocol: Male Syrian gold hamsters weighing between 150-200 g (22-23 weeks) were maintained adlibitum on standard hamster chow and on a 12 hour light and dark cycle. […] At the end of the study period, animals were euthanized by CO2 asphyxiation. Hamster pinia (ear) were removed by punch biopsy (using an 8 mm diameter Sklar Tru-punch—Sklar Instruments). Punch biopsies were taken just above the anatomical “V” in the aural cartilage of each ear to standardize sample collection area. The punch was then split into 2 layers (anterior and posterior). The anterior (front) surface was retained for analysis. For liver samples the bifurcated medial lobe was removed, rinsed in saline and drained of blood by placing the cut end of the lobe on a sterile absorbent paper and using capillary action. The liver lobe was then flash frozen in liquid nitrogen. Two Qiagen 3 mm Tungsten beads were added to tubes containing individual anterior biopsies of hamster ear skin along with 500 ul of homogenization buffer (methanol:water 1:1 v/v). […] Ear skin triglyceride content was determined via LC-MS on the AB SCIEX Qtrap 5500. […] Lipid extracts were then analyzed by UPLC-MS/MS using a Waters Acquity UPLC coupled to an AB Sciex QTRAP 5500 mass spectrometer. […] Lipid species were then analyzed on the mass spectrometer using positive ion electrospray ionization in the multiple reaction monitoring (MRM) mode. […]
# [5] = system: de novo lipogenesis in ear skin and liver; test: Effect of oral and topical ACCi on DNL (14C-acetate incorporation) in Syrian hamsters; assay type: in vivo, Syrian hamster; conditions: oral 100 mg/kg single dose, vs. vehicle
# Protocol: Male Syrian gold Hamster at ˜10 weeks were maintained adlibitum on standard hamster chow and water. […] Example 3 for topical delivery was prepared as a solution in a vehicle consisting of 70:30 (Ethanol:propylene glycol) at a concentration of 100 mg/ml. Topical administration of a single dose (5 ul/ear) was applied to hamster ears with a pipette (2-10 ul) tip adhering to 2 minute intervals following the dosing order. The dosing timing allowed for the formulation to spread evenly over an approximate 1 sq cm area and absorb/dry prior to returning the animal to the cage. 1 hour post ACCi dose each animal received an IP injection of ^14C-labeled acetate (ARC0158B diluted in saline) following the 2 minute interval timing format. Each animal received an individually calculated amount of ^14C-acetate based on body weight (0.1 μCi/g in a dosing volume of 2 μl/g). One hour after the ^14C-Acetate injection animals were sacrificed by CO2 asphyxiation.
# Liver and ear skin were collected for de novo lipogenesis determinations (^14C incorporation to lipid). Briefly, 2 liver punches totaling ˜400 mg of liver were collected from the bifurcated median lobe of each animal (using a 8 mm diameter Sklar Tru-punch—Sklar Instruments), rinsed with saline and blotted dry. The tissues were placed into pre-weighed in glass tubes (Pyrex 9826-16×125 mm with PTFE lined caps) containing NaOH (1.5 mL of 2.5 M).
# Ear skin samples were prepared for analysis in the following manner. One 8 mm distal biopsy punch (using an 8 mm diameter Sklar Tru-punch—Sklar Instruments) (2 per animal) was taken just above the anatomical “V” in the aural cartilage to standardize sample collection area. The punch was then split into 2 layers (anterior and posterior). The anterior (front) surface is retained for analysis. The anterior skin was placed into pre-weighed in glass tubes (Pyrex 9826-16×125 mm with PTFE lined caps) containing NaOH (1.5 mL of 2.5 M).
# Upon completion of the study, the liver and ear skin samples in NaOH were weighed and this weight was used to calculate the mass of the tissue collected. The capped tubes were heated in an dry oven (˜60° C.) until the tissue was fully degraded (˜4-6 hr, gentle vortexing 2-3 times during heating). Following degradation and cooling absolute ethanol (2.5 mL) was added to each sample. The tubes were recapped and vigorously mixed (vortexed) for 60 seconds and allowed to settle overnight at RT. Petroleum ether (4.8 mL) was added to each tube, recapped and the samples were vigorous mixed (60 sec). […] Aquasol-2 scintillation fluid (10 mL) (or other compatible scintillation fluid) was added to each vial and after vortexing the samples were counted in an appropriate scintillation counter (e g. Wallac Rack-Beta 1409 LSC). […]
# Chain of hACC2 (O00763 whole entry): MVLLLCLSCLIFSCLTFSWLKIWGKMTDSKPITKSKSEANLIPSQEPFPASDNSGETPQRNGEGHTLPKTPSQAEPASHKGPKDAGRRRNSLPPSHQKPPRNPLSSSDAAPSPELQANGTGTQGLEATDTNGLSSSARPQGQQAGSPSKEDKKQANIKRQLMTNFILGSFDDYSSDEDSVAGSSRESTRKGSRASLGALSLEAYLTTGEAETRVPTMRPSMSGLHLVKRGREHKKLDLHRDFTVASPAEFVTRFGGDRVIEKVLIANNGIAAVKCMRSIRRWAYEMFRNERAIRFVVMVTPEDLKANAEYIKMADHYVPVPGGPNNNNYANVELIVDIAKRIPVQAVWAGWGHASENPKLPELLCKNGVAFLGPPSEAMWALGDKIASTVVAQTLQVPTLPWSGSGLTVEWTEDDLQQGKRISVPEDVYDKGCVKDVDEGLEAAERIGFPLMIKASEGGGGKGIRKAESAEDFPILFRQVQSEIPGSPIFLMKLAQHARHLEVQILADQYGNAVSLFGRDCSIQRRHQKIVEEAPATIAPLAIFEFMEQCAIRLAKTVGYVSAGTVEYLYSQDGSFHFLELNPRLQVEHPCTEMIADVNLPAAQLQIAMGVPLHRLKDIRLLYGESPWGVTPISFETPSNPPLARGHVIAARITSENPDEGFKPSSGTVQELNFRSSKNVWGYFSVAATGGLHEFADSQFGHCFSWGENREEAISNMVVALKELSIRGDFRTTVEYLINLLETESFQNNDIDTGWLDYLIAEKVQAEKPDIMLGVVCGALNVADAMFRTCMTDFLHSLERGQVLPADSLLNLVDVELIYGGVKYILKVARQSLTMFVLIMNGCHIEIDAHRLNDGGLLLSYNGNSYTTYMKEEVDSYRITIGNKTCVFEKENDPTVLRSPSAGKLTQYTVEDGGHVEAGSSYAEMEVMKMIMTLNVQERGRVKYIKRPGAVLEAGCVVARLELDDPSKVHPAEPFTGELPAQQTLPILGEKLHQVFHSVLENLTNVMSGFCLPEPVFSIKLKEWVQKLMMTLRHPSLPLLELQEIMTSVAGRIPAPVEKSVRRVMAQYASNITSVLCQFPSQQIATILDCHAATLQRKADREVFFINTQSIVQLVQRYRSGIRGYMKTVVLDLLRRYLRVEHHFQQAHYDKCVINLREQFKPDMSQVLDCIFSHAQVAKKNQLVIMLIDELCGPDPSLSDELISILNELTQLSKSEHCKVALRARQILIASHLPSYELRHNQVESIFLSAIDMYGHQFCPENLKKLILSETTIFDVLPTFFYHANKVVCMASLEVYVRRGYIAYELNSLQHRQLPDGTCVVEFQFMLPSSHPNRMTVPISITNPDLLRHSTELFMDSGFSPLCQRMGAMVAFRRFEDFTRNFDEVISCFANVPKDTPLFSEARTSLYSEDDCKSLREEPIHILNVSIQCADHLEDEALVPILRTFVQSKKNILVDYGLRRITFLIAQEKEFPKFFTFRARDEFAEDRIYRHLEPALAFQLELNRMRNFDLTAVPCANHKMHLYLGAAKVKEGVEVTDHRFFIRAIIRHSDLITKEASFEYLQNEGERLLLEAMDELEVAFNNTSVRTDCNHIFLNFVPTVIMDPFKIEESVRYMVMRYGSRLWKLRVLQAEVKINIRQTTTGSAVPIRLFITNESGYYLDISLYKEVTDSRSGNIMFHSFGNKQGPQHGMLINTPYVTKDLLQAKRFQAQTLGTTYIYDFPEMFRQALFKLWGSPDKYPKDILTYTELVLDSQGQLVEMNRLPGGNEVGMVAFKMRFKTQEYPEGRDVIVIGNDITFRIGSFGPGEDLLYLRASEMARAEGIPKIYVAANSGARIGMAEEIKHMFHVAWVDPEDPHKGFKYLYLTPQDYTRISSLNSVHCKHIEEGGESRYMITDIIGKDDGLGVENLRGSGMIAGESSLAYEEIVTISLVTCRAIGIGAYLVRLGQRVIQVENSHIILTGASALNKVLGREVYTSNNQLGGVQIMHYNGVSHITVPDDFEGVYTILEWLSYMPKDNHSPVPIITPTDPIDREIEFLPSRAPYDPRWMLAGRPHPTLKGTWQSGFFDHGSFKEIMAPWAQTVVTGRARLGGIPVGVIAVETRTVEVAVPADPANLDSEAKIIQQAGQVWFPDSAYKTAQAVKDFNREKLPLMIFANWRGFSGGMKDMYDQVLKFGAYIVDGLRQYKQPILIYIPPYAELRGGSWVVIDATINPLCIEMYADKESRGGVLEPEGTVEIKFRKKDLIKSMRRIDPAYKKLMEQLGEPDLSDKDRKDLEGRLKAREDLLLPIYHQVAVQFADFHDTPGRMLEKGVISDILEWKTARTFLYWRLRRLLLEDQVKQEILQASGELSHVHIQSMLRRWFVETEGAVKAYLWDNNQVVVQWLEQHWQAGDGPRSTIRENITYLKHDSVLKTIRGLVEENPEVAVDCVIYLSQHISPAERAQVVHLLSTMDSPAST
IC50 (hACC2) [nM],IC50 [1] [nM],IC50 [2] [nM],IC50 (hACC1) [nM],IC50 [3] [nM],Compound,ear skin triglyceride levels vs. vehicle [4],suppression of incorporation of de novo synthesized fatty acids in liver [5] [%],suppression of incorporation of de novo synthesized fatty acids in skin [5] [%]
16,680,109,687,–,"CC(=O)N[C@@H](C)CCc1ccc(Oc2ccc(OC(C)C)cc2)cc1 [Example 23, (S)—N-(4-(4-(4-isopropoxyphenoxy)phenyl)butan-2-yl)acetamide]",–,–,–
4,4,2,3,28.2,"COc1ccc2ccc(C(=O)N3CCC4(CC3)CC(=O)c3c(cnn3C(C)C)C4)cc2c1 [Example 2, 1-isopropyl-1′-(7-methoxy-2-naphthoyl)-4,6-dihydrospiro[indazole-5,4′-piperidin]-7(1H)-one]",–,–,–
–,–,–,–,549,"CC(C)(C)n1cc2c(n1)C(=O)CC1(CCN(C(=O)c3ccc4[nH]ncc4c3)CC1)O2 [Example 8, 2′-(tert-butyl)-1-(1H-indazole-5-carbonyl)-2′H-spiro[piperidine-4,5′-pyrano[3,2-c]pyrazol]-7′(6′H)-one]",No changes,85,84
5,17,12,6,15,"CC(C)n1ncc2c1C(=O)CC1(CCN(C(=O)c3ccc4ccc(NC(C)(C)C)nc4c3)CC1)C2 [Example 4, 1′-(2-(tert-butylamino)quinoline-7-carbonyl)-1-isopropyl-4,6-dihydrospiro[indazole-5,4′-piperidin]-7(1H)-one]",–,–,–
2,141,29,26,121,"CC(=O)N[C@@H](C)C#Cc1ccc(Oc2ccc(OC(C)C)cc2)cc1 [Example 12, (S)—N-(4-(4-(4-isopropoxyphenoxy)phenyl)but-3-yn-2-yl)acetamide]",–,–,–
8,62,30,5,201,"CC(C)n1ncc2c1C(=O)CC1(CCN(C(=O)c3ccc4[nH]ncc4c3)CC1)C2 [Example 5, 1′-(1H-indazole-5-carbonyl)-1-isopropyl-4,6-dihydrospiro[indazole-5,4′-piperidin]-7(1H)-one]",–,–,–
2,44,7,98,–,"CC(=O)N[C@@H](C)c1cc(-c2cnc(Oc3ccc(OCC4CC4)cc3)s2)no1 [Example 21, (S)—N-(1-(3-(2-(4-(cyclopropylmethoxy)phenoxy)thiazol-5-yl)isoxazol-5-yl)ethyl)acetamide]",–,–,–
5,12,8,23,8930,"CCOc1cc(C(=O)N2CCC3(CC2)CC(=O)c2cc(-c4cncc(C(N)=O)c4)ccc2O3)cc(OCC)c1-c1cccc(C(=O)O)c1 [Example 14, 4′-(6-(5-carbamoylpyridin-3-yl)-4-oxospiro[chromane-2,4′-piperidine]-1′-carbonyl)-2′,6′-diethoxy-[1,1′-biphenyl]-3-carboxylic acid]",–,–,–

Compound,IC50 (hACC2) [nM],IC50 [1] [nM],IC50 [2] [nM],IC50 (hACC1) [nM],IC50 [3] [nM],ear skin triglyceride levels vs. vehicle [4],suppression of incorporation of de novo synthesized fatty acids in liver [5] [%],suppression of incorporation of de novo synthesized fatty acids in skin [5] [%]
"CO[C@H]1CCCC[C@@H](c2ccccc2)OC(=O)[C@@H](C)[C@@]2(O)O[C@H]([C@@H](C)[C@H](O)[C@H]2OC)[C@@H](C)/C=C/[C@H]1OC [Example 9, reference compound]",16,20,1200,140,4,–,–,–
